Patent US20260115253A1, “VISCOUS COMPOSITION FOR TREATING ISCHEMIA” (National Cheng Kung University, priority 2017, published 2026)

Tested on: diabetic mice with lower limb ischemia
Assay: Diabetic lower limb ischemia mouse model, blood flow by laser Doppler flowmetry
Format: in vivo
Details: 3.125 ng/g of VEGF in composition DIV
Procedure: C57BL/6 male mice were sourced from the National Cheng Kung University (NCKU) Laboratory Animal Center or BioLASCO Taiwan Co., Ltd. They were housed in the animal facility of the NCKU Institute of Biotechnology for at least one week in order for them to adapt to the environment before experiments were performed.
Since low blood sugar levels in mice would interfere with the results, mice with blood sugar levels within the range of 400 mg/dl to 550 mg/dl were used for the experiments, and minute amount of insulin might be applied to mice to avoid life-threatening high blood sugar levels. In order to avoid the possibility of self-regenerative neovascularization, the femoral artery and its peripheral blood vessels in the lower limbs of the mice were severed. The model minimized the possibility of blood vessel regeneration, which allowed a more accurate assessment of the angiogenic ability of testing drugs. […]
At day 0, 1, 2, 3, 4, 5, 6, 7, 14, 21 and 28 post-surgery, the apparent appearance and blood flow of the lower limb in the mice were evaluated using the score system shown in Table 1 and laser Doppler flowmetry, respectively. ROI was calculated as the ratio of the blood flow signal of the left lower limb to that of the untreated right lower limb post-surgery, and the ratio in percentage was normalized based on the blood flow signal taken before the operation.

VEGF
Blood flow compared with the control group: significantly increased the blood flow at day 14 and then on post surgery
